In patent publication US6156790A, “C-10 carbon-substituted artemisinin-like trioxane compounds having antimalarial, antiproliferative and antitumor activities” (priority 1997, dated 2000):
“Also recorded” adds a separate entry of the source. Read-outs that look alike come from different tables or passages of the source.

Assays:
CCRF-CEM = test: NCI 60 cell line screen (SRB), leukemia; format: cell-based; conditions: Homo sapiens
K-562 = test: cells; format: cell-based; conditions: Homo sapiens, K562, K-562
MOLT-4 = test: cells; conditions: Homo sapiens
Description: The screening assay is performed on a 96-well microtitre plates.
Dose response curves, shown in the above mentioned Figures, are obtained by exposing various cancer cell lines to compounds having a known concentration ([log10 M]), as discussed in detail above, and then plotting the percentage growth of each cell line for each concentration. […] As discussed previously, the five drug dilutions routinely tested range from 10^-4 to 10^-9 molar.

SR = test: cells; format: cell-based; conditions: Homo sapiens
A549/ATCC = test: NCI 60 cell line screen (SRB), non-small cell lung cancer; format: cell-based; conditions: Homo sapiens
EKVX = test: as above; format: cell-based; conditions: Homo sapiens
HOP-62 = test: cells; format: cell-based; conditions: Homo sapiens, read-out: Log10 GI50 (converted)
HOP-92 = test: NCI 60 cell line screen (SRB), non-small cell lung cancer; format: cell-based; conditions: Homo sapiens, read-out: Log10 GI50 (converted)
NCI-H226 = test: as above; format: cell-based; conditions: Homo sapiens, read-out: Log10 GI50 (converted)
NCI-H23 = test: as above; format: cell-based; conditions: Homo sapiens
NCI-H460 = test: cells; format: cell-based; conditions: Homo sapiens, NCI-H460
HCT-116 = test: cells; format: cell-based; conditions: Homo sapiens
HCT-15 = test: cells; format: cell-based; conditions: Homo sapiens, HCT-15
HT29 = test: cells; format: cell-based; conditions: Homo sapiens, HT-29, read-out: Log10 GI50 (converted)
KM12 = test: cells; format: cell-based; conditions: Homo sapiens, read-out: Log10 TGI (converted)
SW-620 = test: NCI 60 cell line screen (SRB), colon cancer; format: cell-based; conditions: Homo sapiens
SNB-19 = test: cells; format: cell-based; conditions: Homo sapiens, read-out: Log10 GI50 (converted)
SNB-75 = test: cells; format: cell-based; conditions: Homo sapiens, read-out: Log10 GI50 (converted)
U251 = test: cells; format: cell-based; conditions: Homo sapiens
SK-MEL-2 = test: cells; format: cell-based; conditions: Homo sapiens
OVCAR-8 = test: NCI 60 cell line screen (SRB), ovarian cancer; format: cell-based; conditions: Homo sapiens
A498 = test: cells; format: cell-based; conditions: Homo sapiens, read-out: Log10 GI50 (converted)
TK-10 = test: cells; format: cell-based; conditions: Homo sapiens
UO-31 = test: NCI 60 cell line screen (SRB), renal cancer; format: cell-based; conditions: Homo sapiens
PC-3 = test: cells; format: cell-based; conditions: Homo sapiens, PC-3
MCF7 = test: cells; format: cell-based; conditions: Homo sapiens, MCF7; read-out: Log10 GI50 (converted)
MDA-MB231/ATCC = test: cells; format: cell-based; conditions: Homo sapiens, MDA-MB-231, read-out: Log10 TGI (converted)
MDA-N = test: cells; format: cell-based; conditions: Homo sapiens, read-out: Log10 GI50 (converted)
BT-549 = test: cells; format: cell-based; conditions: Homo sapiens
T-47D = test: cells; format: cell-based; conditions: Homo sapiens, T47D, T-47D
60 cell line panel = test: NCI 60 cell line screen, whole panel; format: cell-based
IGROVI = test: cells; conditions: 60 cell
ACHN = test: cells; conditions: Homo sapiens
RXF 393 = test: cells; conditions: Homo sapiens, RXF 393, read-out: Log10 GI50 (converted)
M14 = test: NCI 60 cell line screen (SRB), melanoma; conditions: Homo sapiens, M14, read-out: Log10 GI50 (converted)
[1] = read-out: Log10 TGI (converted)
[2] = read-out: Log10 GI50 (converted)
[3] = read-out: Log10 LC50 (converted)

Work on `C[C@H]1[C@@H](F)O[C@@H]2O[C@@]3(C)CC[C@H]4[C@H](C)CC[C@@H]1[C@@]24OO3` [Compound VI, 10β-Fluorodeoxoartemisinin] yielded a GI50 (CCRF-CEM; CCRP-CEM, read-out: Log10 GI50 (converted)) of 0.562 µM, an IC (TGI) (CCRF-CEM; [1]) of 53.7 µM and a GI50 (K-562; [2]) of 0.316 µM. It also gave an IC (TGI) (K-562; [1]) of 12.6 µM, a GI50 (MOLT-4; MOLT-4, read-out: Log10 GI50 (converted)) of 0.427 µM and an IC (TGI) (MOLT-4; MOLT-4, read-out: Log10 TGI) of 36.3 µM. It also gave a GI50 (MOLT-4; MOLT-4, read-out: concentration for primary growth inhibition) of roughly 0.1 µM, a GI50 (SR; [2]) of 0.427 µM and an IC (TGI) (SR; [1]) of 13.8 µM. The GI50 (A549/ATCC; [2]) was 6.03 µM, the IC (TGI) (A549/ATCC; [1]) was 30.9 µM and the GI50 (EKVX; [2]) was 2.95 µM. It also gave an IC (TGI) (EKVX; [1]) of 89.1 µM, a GI50 (HOP-62) of 12.9 µM and a GI50 (HOP-92) of 2.95 µM. It also gave a GI50 (NCI-H226) of 5.75 µM, a GI50 (NCI-H23; [2]) of 0.631 µM and an IC (TGI) (NCI-H23; [1]) of 25.1 µM. It also gave a GI50 (NCI-H460; [2]) of 0.813 µM, a CC50 (NCI-H460; [3]) of 55 µM and an IC (TGI) (NCI-H460; [1]) of 19.1 µM. It also gave a GI50 (HCT-116; [2]) of 0.195 µM, a CC50 (HCT-116; [3]) of 42.7 µM and a GI50 (HCT-15; [2]) of 0.339 µM. The IC (TGI) (HCT-15; [1]) was 51.3 µM, the GI50 (HT29) was 0.407 µM and the IC (TGI) (KM12) was 26.9 µM. It also gave a GI50 (SW-620; [2]) of 0.398 µM, a CC50 (SW-620; [3]) of 63.1 µM and an IC (TGI) (SW-620; [1]) of 15.5 µM. For the same compound, the GI50 (SNB-19) was 871 µM, the GI50 (SNB-75) was 14.5 µM and the GI50 (U251; U-251, read-out: Log10 GI50 (converted)) was 0.447 µM. For the same compound, the CC50 (U251; U-251, read-out: Log10 LC50 (converted)) was 42.7 µM, the IC (TGI) (U251; U-251, read-out: Log10 TGI (converted)) was 16.2 µM and the GI50 (SK-MEL-2; [2]) was 7.59 µM. The IC (TGI) (SK-MEL-2; [1]) was 77.6 µM, the GI50 (OVCAR-8; [2]) was 2.04 µM and the IC (TGI) (OVCAR-8; [1]) was 51.3 µM. The GI50 (A498) was 28.2 µM, the GI50 (TK-10; [2]) was 11 µM and the IC (TGI) (TK-10; [1]) was 37.2 µM. The GI50 (UO-31; [2]) was 1.1 µM, the CC50 (UO-31; [3]) was 25.1 µM and the IC (TGI) (UO-31; [1]) was 5.01 µM. For the same compound, the GI50 (PC-3; [2]) was 0.251 µM, the IC (TGI) (PC-3; [1]) was 46.8 µM and the GI50 (MCF7) was 0.525 µM. The IC (TGI) (MDA-MB231/ATCC) was 56.2 µM, the GI50 (MDA-N) was 1.15 µM and the GI50 (BT-549; [2]) was 0.759 µM. The IC (TGI) (BT-549; [1]) was 30.9 µM, the GI50 (T-47D; [2]) was 0.302 µM and the IC (TGI) (T-47D; [1]) was 47.9 µM. For the same compound, the IC (TGI) (60 cell line panel; 60 cell, mean over panel, read-out: Log10 TGI MG MID (converted)) was 41.7 µM, the CC50 (60 cell line panel; Homo sapiens, 60 cell, mean over panel, read-out: Log10 LC50 MG MID (converted)) was 93.3 µM and the “potency compared with artemisinin” value (60 cell line panel; Tables III, IV and V) was “more potent than artemisinin”. For the same compound, the “potency compared with paclitaxel” value (60 cell line panel; Tables III, IV and V) was “in most instances are as potent and in some instances more potent than paclitaxel; also recorded: equivalent to and in many instances higher in potency than paclitaxel”, the GI50 (IGROVI; [2]) was 1.23 µM and the IC (TGI) (IGROVI; read-out: Log10 TGI) was 18.2 µM. For the same compound, the GI50 (ACHN; [2]) was 1.02 µM, the CC50 (ACHN; [3]) was 38.9 µM and the IC (TGI) (ACHN; read-out: Log10 TGI) was 12.6 µM. For the same compound, the GI50 (RXF 393) was 14.8 µM and the GI50 (M14) was 17.4 µM.
